The values that follow come from patent US9266813B2, “Stilbenoid compound as inhibitor for squamous carcinoma and hepatoma and uses thereof” (AnnCare Bio-Tech Center Inc., priority 2013, dated 2016).

Structures are written as SMILES. Converted amounts (≈) assume the structure as drawn. Where two headings read alike, the source gives them in different places.

Series [1] relates to Hep3B cells. Put plainly: MTT assay, antiproliferation on Hep3B cells. Format: cell-based. The note with it: for IC50: Homo sapiens, Hep3B cells, MTT; for anticancer activity compared with resveratrol and pterostilbene: Hep 3B and CAR cells, Table 1. The procedure:
(§1) Antiproliferations of compound 2-4 were determined by an improved MTT assay. The CAR cells were individually plated at a density of 2×10^4 cells/well onto 96-well plates and treated with Dimethyl sulfoxide (DMSO) alone (0.5% (v/v) in media served as a vehicle control) and various concentrations (0, 25, 50, 75 and 100 μM) of compound 2-4 for 24 and 48 hours. Following the above treatments, the supernatant was discarded before a 100 μL solution of MTT (500 μg/ml) was added to each well for 4 hours at 37 °C. After incubation, the medium was replaced by the addition of 200 μL DMSO to solubilize the violet formazan crystal produced from MTT. The absorbance of the dissolved formazan grained within the cells was measured at 570 nm by a microplate reader to calculate viability (data shown as % of control).
(§2) Please refer to Table 1. Hep3B cells and CAR cells were treated by different concentrations of the compounds of the invention for 48 and 72 hours, and the antiprolifieration effect of such compounds was evaluated using MTT assay. Data are presented as IC50 (μM), the concentration of 50% proliferation-inhibitory effect.
The anti-proliferative ability of compound 2-4 in hepatocellular carcinoma was evaluated in Hep3B cells using MTT assay. Hep3B cells were treated with various concentrations of compound 2-4 for 48 and 72 hours.

Series [2] relates to CAR cells. Put plainly: MTT assay, antiproliferation on cisplatin-resistant head and neck squamous carcinoma (CAR) cells. Format: cell-based, human. The note with it: Homo sapiens, CAR cells, MTT. The protocol:
The human head and neck carcinoma cell line CAL27 was obtained from American Tissue Culture Collection (ATCC). The cisplatin-resistant cell line CAR (CAL27-cisplatin resistance) was established by clonal selection of CAL27 using 10 cycles of 1 passage treatment with 10-80 μM of cisplatin (Sigma-Aldrich Corp. (St. Louis, Mo., USA) followed by a recovery period of another passage. CAR cells were cultivated in Dulbecco's modified Eagle's medium (DMEM) supplemented with 10% FBS, 100 μg/mL streptomycin, 100 U/mL penicillin G, 2 mM L-glutamine (Gibco by Life Technologies (Carlsbad, Calif., USA)) and 80 μM of cisplatin (Sigma-Aldrich Corp. (St. Louis, Mo., USA).
as §1, §2
MTT assay was utilized and CAR cells were treated with compound 2-4 in different concentration for 24, 48 and 72 hours. […] The IC50 after 72 hours of treatment was 50 μM.

Series [3] in a line: Water solubility assay. Format: physicochemical. The note with it: read-out: Water solubility, Content. An excerpt: The water solubility of the compounds of the present invention can be determined by methods known in the art and the result is shown in Table 3.
The conditions of series [4]: dose up to 3.0 g/kg/day; cited from earlier work.
Where [5] appears, read: 48 hours, read-out: Hep 3B (IC50 (μM)) 48 hours.
The mark [6] stands for this setting: 72 hours, read-out: Hep 3B (IC50 (μM)) 72 hours.
Setting [7] is: 48 hours, read-out: CAR (IC50 (μM)) 48 hours.
The mark [8] stands for this setting: 72 hours, read-out: CAR (IC50 (μM)) 72 hours.

As to `CC(CO)(CO)C(=O)Oc1ccc(/C=C/c2cc(O)cc(O)c2)cc1` [Compound 3-5], the IC50 worked out at 144 µM in series [1] (setting [5]), 47.8 µM in series [1] (setting [6]), 169 µM in series [2] (setting [7]) and 133 µM in series [2] (setting [8]). The solubility in series [3] stood at 52.9 µg/mL (≈ 154 µM).

As to `CC(CO)(CO)C(=O)Oc1ccc(/C=C/c2cc(O)cc(OC(=O)C(C)(CO)CO)c2)cc1` [Compound 3-6, 3,4′-[2,2-Bis(hydroxymethyl)propanoxy]-resveratrol], in series [1], the “anticancer activity compared with resveratrol and pterostilbene” value is “more potent anticancer activity than resveratrol and pterostilbene”. Moreover, the half-maximal inhibitory concentration (IC50) amounted to 54.2 µM in series [1] (setting [5]), 36.8 µM in series [1] (setting [6]), 105 µM in series [2] (setting [7]) and 113 µM in series [2] (setting [8]). Also, the solubility in series [3] worked out at 136 µg/mL (≈ 295 µM).

As to `CC(CO)(CO)C(=O)Oc1ccc(/C=C/c2cc(OC(=O)C(C)(CO)CO)cc(OC(=O)C(C)(CO)CO)c2)cc1` [Compound 4-3, 3,5,4′-[2,2-Bis(hydroxymethyl)propanoxy]-resveratrol], the IC50 in series [1] (setting [5]) stood at 151 µM; in series [1] (setting [6]), 95 µM; in series [2] (setting [7]) it was 149 µM; in series [2] (setting [8]), 124 µM. The solubility in series [3] was determined as 372 µg/mL (≈ 646 µM).

Turning to `CC(CO)(CO)C(=O)Oc1cc(O)cc(/C=C/c2ccc(O)cc2)c1` [Compound 5-3], the IC50 in series [1] (setting [5]) was 83.5 µM; in series [1] (setting [6]) it was 68.9 µM; in series [2] (setting [7]) it was 54.9 µM; in series [2] (setting [8]) it was 113 µM. In addition, the solubility in series [3] was 410 µg/mL (≈ 1190 µM).

With `CC(CO)(CO)C(=O)Oc1cc(/C=C/c2ccc(O)cc2)cc(OC(=O)C(C)(CO)CO)c1` [Compound 6-3, 3,5-[2,2-Bis(hydroxymethyl)propanoxy]-resveratrol], the IC50 in series [1] (setting [5]) came out at 137 µM; in series [1] (setting [6]), 55.3 µM; in series [2] (setting [7]) it was 91.4 µM; in series [2] (setting [8]) it was 77 µM. In series [3], the solubility is 455 µg/mL (≈ 988 µM).

On to `COc1ccc(/C=C/c2cc(OC)cc(OC(=O)C(C)(CO)CO)c2)cc1` [Compound 7-3, 3,4′methyl-5-[2,2-Bis(hydroxymethyl)propanoxy]-resveratrol], for which the “anticancer activity compared with resveratrol and pterostilbene” value in series [1] is “more potent anticancer activity than resveratrol and pterostilbene”. In addition, the IC50 is 70.8 µM in series [1] (setting [5]), 48.7 µM in series [1] (setting [6]), 64.2 µM in series [2] (setting [7]) and 67.3 µM in series [2] (setting [8]). The solubility in series [3] was determined as 53.4 µg/mL (≈ 143 µM).

`COc1cc(/C=C/c2ccc(OC(=O)C(C)(CO)CO)cc2)cc(OC(=O)C(C)(CO)CO)c1` [Compound 8-3, 3-methyl-5,4′-[2,2-Bis(hydroxymethyl)propanoxy]-resveratrol]: the IC50 worked out at 106 µM in series [1] (setting [5]), 66.5 µM in series [1] (setting [6]), 56.5 µM in series [2] (setting [7]) and 59.8 µM in series [2] (setting [8]). Further, the solubility in series [3] was above 1000 µg/mL.

Turning to `CC(=O)Oc1cc(/C=C/c2ccc(OC(=O)C(C)(CO)CO)cc2)cc(OC(C)=O)c1` [Compound 9-4, 3,5-acetyl-4′-[2,2-Bis(hydroxymethyl)propanoxy]-resveratrol], the IC50 in series [1] (setting [5]) was determined as 148 µM; in series [1] (setting [6]), 62 µM; in series [2] (setting [7]) it was 103 µM; in series [2] (setting [8]) it was 116 µM. In addition, the solubility in series [3] was determined as 306 µg/mL (≈ 715 µM).

`CC(=O)Oc1cc(/C=C/c2ccc(OC(=O)C(C)(CO)CO)cc2)cc(OC(=O)C(C)(CO)CO)c1` [Compound 10-4, 3-acetyl-5,4′-[2,2-Bis(hydroxymethyl)propanoxy]-resveratrol]: the IC50 is above 200 µM in series [1] (setting [5]), above 200 µM in series [1] (setting [6]), 122 µM in series [2] (setting [7]) and 119 µM in series [2] (setting [8]). Besides, the solubility in series [3] was above 1000 µg/mL.

In the case of `COc1cc(O)cc(/C=C/c2ccc(OC(=O)C(C)(CO)CO)cc2)c1` [Compound 11-3, 3-methyl-4′-[2,2-Bis(hydroxymethyl)propanoxy]-resveratrol], the “anticancer activity compared with resveratrol and pterostilbene” value in series [1] is “more potent anticancer activity than resveratrol and pterostilbene”. In addition, the IC50 in series [1] (setting [5]) is 88.9 µM; in series [1] (setting [6]), 33.2 µM; in series [2] (setting [7]), 67.3 µM; in series [2] (setting [8]), 64 µM. Further, the solubility in series [3] was found to be 35.8 µg/mL (≈ 99.9 µM).

`COc1cc(/C=C/c2ccc(OC(=O)C(C)(CO)CO)cc2)cc(OC(C)=O)c1` [Compound 12-3, 5-acetyl-3-methyl-4′-[2,2-Bis(hydroxymethyl)propanoxy]-resveratrol]: the “anticancer activity compared with resveratrol and pterostilbene” value in series [1] is “more potent anticancer activity than resveratrol and pterostilbene”. Further, the IC50 in series [1] (setting [5]) is 85.2 µM; in series [1] (setting [6]), 36.8 µM; in series [2] (setting [7]) it was 52 µM; in series [2] (setting [8]) it was 50.3 µM. In addition, the solubility in series [3] worked out at 81.9 µg/mL (≈ 205 µM).

For `COc1ccc(/C=C/c2cc(OC(=O)C(C)(CO)CO)cc(OC(=O)C(C)(CO)CO)c2)cc1` [Compound 13-3, 3,5-[2,2-Bis(hydroxymethyl)propanoxy]-4′-methyl-resveratrol], in series [1], the “anticancer activity compared with resveratrol and pterostilbene” value was “more potent anticancer activity than resveratrol and pterostilbene”. The 50% inhibitory concentration (IC50) in series [1] (setting [5]) came out at 53.4 µM; in series [1] (setting [6]), 39.1 µM; in series [2] (setting [7]) it was 73.9 µM; in series [2] (setting [8]), 70.8 µM. Further, in series [3], the solubility turned out to be 337 µg/mL (≈ 710 µM).

Take `COc1cc(/C=C/c2ccc(OC(=O)C3OC(C)(C)OC3C3COC(C)(C)O3)cc2)cc(OC)c1` [Compound 14-5, Pterostilbene D-Ribonic Acid Diacetonide]: the IC50 in series [1] (setting [5]) was 94.7 µM; in series [1] (setting [6]), 59.5 µM; in series [2] (setting [7]), above 200 µM; in series [2] (setting [8]), above 200 µM. Besides, the solubility in series [3] was below 10 µg/mL.

Consider `COc1cc(/C=C/c2ccc(O)cc2)cc(OC)c1` [Pterostilbene, reference compound], for which the half-maximal inhibitory concentration (IC50) in series [1] (setting [5]) was 75.3 µM; in series [1] (setting [6]), 48.9 µM; in series [2] (setting [7]) it was 100 µM; in series [2] (setting [8]), 98.3 µM. Further, the solubility in series [3] is 48 µg/mL (≈ 187 µM). For the same compound, the “28 days subchronic toxicity” value in series [4] is “no significant adverse biochemical parameters and toxic effects were noted”.

As to `Oc1ccc(/C=C/c2cc(O)cc(O)c2)cc1` [Resveratrol, 3,5,4′-trihydroxy-trans-stilbene, reference compound], the IC50 in series [1] (setting [5]) was 96.4 µM; in series [1] (setting [6]) it was 51.6 µM; in series [2] (setting [7]) it was 153 µM; in series [2] (setting [8]), 88.3 µM. For the same compound, the solubility in series [3] came to 107 µg/mL (≈ 470 µM).
